Source: patent US20190247376A1, “NICOTINIC ACETYLCHOLINE RECEPTOR AGONIST ATTENUATES ILC2-DEPENDENT AIRWAY HYPERREACTIVITY” (University of Southern California, priority 2016, published 2019)

Assays:
Rag2 deficient mice = assay: IL-33-induced ILC2-mediated AHR and airway inflammation in Rag2-deficient mice; type: in vivo, mouse
Experimental: FIGS. 3A-3H: α7nAChR agonist treatment ameliorates ILC2s mediated AHR. (FIG. 3A) Rag2-deficient mice were intranasally challenged with recombinant mouse IL-33 or PBS and also received α7nAChR agonist (125 μg) or PBS on days 1-3 according to scheme 3A. Measurement of lung function and analyses of bronchoalveolar lavage fluid (BALF) and lung histology followed on day 4. (FIGS. 3B-3C) Lung resistance and dynamic compliance. (FIG. 3D) Total number of cells and eosinophils in BALF. (FIG. 3E) Hematoxylin and eosin-stained lung sections (×200). Scale bars represent 50 μm. (FIG. 3F) Quantification of lung histopathology shown as number of inflammatory cells per 250 μm^2 and thickness of airway epithelium (μm). (FIG. 3G) Total number and frequency of lung ILC2s. (FIG. 3H) Percentage of IL-5^+ and IL-13^+ lung ILC2s determined by flow cytometry. Data are representative of at least four independent experiments and are presented as means±SEM (n=8; Student's test *, p<0.05; **, p<0.01; ***, p<0.001).
As reported previously^6-9,11,12,34,35, the IL-5 and IL-13 cytokines produced by activated ILC2s are essential for eosinophilic inflammation and AHR development. Applicants investigated whether the attenuated ILC2 function by α7nAChR stimulation in vitro could result in inhibition of ILC2-mediated AHR and allergic inflammation. Rag2 deficient mice (devoid of T and B cells) were given intranasal (i.n.) rm-IL-33, with or without α7nAChR agonist for three consecutive days (FIG. 3A). As IL-33 administration specifically induces ILC2s, thereby causing AHR, with this model Applicants can readily explore the effect of an α7nAChR agonist in ILC2-mediated AHR. One day after the last challenge, lung function was evaluated by direct measurements of lung resistance (RL) and dynamic compliance (Cdyn), as described in the materials and methods section. […] These findings concur with the reduction of AHR and eosinophil counts in BALF (FIGS. 3B-3D). Thus, α7nAChR agonist represses IL-5 and IL-13 production, eosinophil recruitment, and ILC2-dependent AHR.
(§1) Mice were intranasally (i.n.) administered carrier-free recombinant mouse IL-33 (BioLegend, San Diego Calif., 0.5 µg per mouse in 50 µL) with or without […] of α7nAChR agonist (kindly provided by Lin Chen) on three consecutive days. Mice were intranasally (i.n.) administered carrier-free recombinant mouse IL-25 (BioLegend, San Diego Calif., 5 µg per mouse in 50 µL) with or without […] of α7nAChR agonist on three consecutive days. For Alternaria alternata experiments, mice were i.n. administered Alternaria alternata (Greer Labs, Lenoir, N.C., 100 μg per mouse in 50 μL) with or without 125 µg α7nAChR agonist for four consecutive days. One day after the last challenge, mice were anesthetized using i.p. injection of ketamine (10 mg mL^−1) and xylazine (1 mg mL^−1). Measurements of airway resistance and dynamic compliance were conducted with the Fine Pointe RC System (Buxco Research Systems, Wilmington, N.C.), in which mice were mechanically ventilated using a modified version as previously described^36,67. Mice were sequentially challenged with aerosolized PBS (baseline), followed by increasing doses of methacholine. Maximum lung resistance (RL) and minimum compliance (Cdyn) values were recorded during a three-minute period after each methacholine challenge.
After measurements of AHR, the trachea was canulated and the lungs lavaged three times with 1 mL ice cold PBS to collect BALF cells as previously described^68. […]

Rag2−/− mice = assay: Alternaria alternata-induced AHR in Rag2-deficient mice; type: in vivo, mouse; details: four consecutive days
Excerpt: FIGS. 6A-6C: α7nAChR agonist inhibits Alternaria-induced AHR. (FIG. 6A) Rag2-deficient mice intranasally received an extract of Alternaria alternata with or without α7nAChR agonist on days 1-4 according to scheme FIG. 6A. Measurement of lung function and BALF analysis followed on day 5. (FIG. 6B) Lung resistance. (FIG. 6C) Total number of eosinophils in BALF. Total number of lung ILC2s. Data are representative of at least four independent experiments and are presented as means±SEM (n=4; Student's t test *, p<0.05; ***, p<0.001).
It has been previously reported that Alternaria alternata can induce AHR^40. Applicants further explored the anti-inflammatory effects of α7nAChR agonist in ILC2-mediated AHR with this clinically relevant allergen. Rag2^−/− mice were i.n. administered Alternaria alternata extract with or without α7nAChR agonist for four consecutive days (FIG. 6A). […] Accordingly, the number of eosinophils in BALF and lung ILC2s were increased in Alternaria-treated mice. Meanwhile, α7nAChR agonist treatment abolished eosinophils and ILC2s in the lung (FIG. 6C).
as §1, with “Measurements of airway resistance and dynamic compliance were conducted with the Fine Pointe RC System (Buxco Research Systems, Wilmington, N.C.), in which mice were mechanically ventilated using a modified version as previously described^36,67. Mice were sequentially challenged with aerosolized PBS (baseline), followed by increasing doses of methacholine.” left out

[1] = i.n. rm-IL-33, agonist 125 μg days 1-3, day 4
[2] = i.n. rm-IL-33, agonist 125 μg days 1-3, measured day 4
[3] = i.n. rm-IL-33, agonist 125 μg days 1-3, vs untreated mice
[4] = i.n. Alternaria alternata extract, agonist

Structure (SMILES): COc1ccc(/C=C2\CCCN=C2c2cccnc2)c(OC)c1 [GTS-21, 3-[(3E)-3-[(2,4-dimethoxyphenyl)methylidene]-5,6-dihydro-4H-pyridin-2-yl]pyridine]
- absolute number of lung ILC2s (Rag2 deficient mice; [1]): significantly suppressed
- airway wall thickness (lung histology) (Rag2 deficient mice; [1]): prevented
- eosinophilic infiltration in BALF (Rag2 deficient mice; [1]): decreased
- frequency of lung ILC2s (Rag2 deficient mice; [1]): significantly suppressed
- infiltrated cells (lung histology) (Rag2 deficient mice; [1]): prevented
- total cell counts (TCC) in BALF (Rag2 deficient mice; [1]): decreased
- dynamic compliance (Cdyn) (Rag2 deficient mice; [2]): significantly reduced
- lung resistance (RL) (Rag2 deficient mice; [2]): significantly reduced
- IL-5 producing lung ILC2s (intracellular cytokine assay) (Rag2 deficient mice; [3]): significantly decreased
- IL-13 producing lung ILC2s (intracellular cytokine assay) (Rag2 deficient mice; [3]): significantly decreased
- AHR (lung resistance) (Rag2−/− mice; i.n. Alternaria alternata extract 100 μg, agonist 125 μg): did not develop AHR
- eosinophils in BALF (Rag2−/− mice; [4]): abolished
- lung ILC2s (Rag2−/− mice; [4]): abolished
